Assay results published in ChEMBL document CHEMBL1201862, “PubChem BioAssay data set” (2004).
The source made the active and inactive calls.

Assays:
[1] = tested on: INS1; assay: INS-1E survival protection against cytokine death – cell-based, luminescence, retest, dose response (AID 449756); type: functional; settings: Rattus norvegicus;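 also: cell death triggered by IL-1 beta plus TNF-alpha plus IFN-gamma mixture; protective hits raise ATP signal compared with cytokine alone wells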
[2] = biological target: Nonstructural protein 1 (Influenza A virus, UniProt Q194T2); type: functional, Influenza A virus (A/California/07/2009(H1N1))
[3] = biological target: T1, Protein skinhead-1 (Caenorhabditis elegans, UniProt P34707); type: functional
T1 sequence (P34707 whole entry): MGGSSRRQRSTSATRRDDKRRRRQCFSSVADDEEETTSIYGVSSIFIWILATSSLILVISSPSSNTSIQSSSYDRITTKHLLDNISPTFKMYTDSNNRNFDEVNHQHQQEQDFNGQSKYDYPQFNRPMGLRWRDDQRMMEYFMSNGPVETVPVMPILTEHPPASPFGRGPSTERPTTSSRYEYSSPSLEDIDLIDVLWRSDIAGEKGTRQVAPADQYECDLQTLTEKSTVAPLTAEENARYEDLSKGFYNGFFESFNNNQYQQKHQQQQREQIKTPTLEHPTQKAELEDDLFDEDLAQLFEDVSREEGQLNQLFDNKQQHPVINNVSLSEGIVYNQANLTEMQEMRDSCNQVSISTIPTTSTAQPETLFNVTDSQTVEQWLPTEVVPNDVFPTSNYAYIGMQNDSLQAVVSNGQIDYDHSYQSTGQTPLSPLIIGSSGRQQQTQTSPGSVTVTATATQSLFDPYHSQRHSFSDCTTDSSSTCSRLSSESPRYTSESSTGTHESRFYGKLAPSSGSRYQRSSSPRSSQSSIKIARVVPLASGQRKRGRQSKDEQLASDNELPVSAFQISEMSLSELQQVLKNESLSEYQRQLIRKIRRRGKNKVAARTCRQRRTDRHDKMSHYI

[4] = tested on: Streptococcus sp. 'group A'; assay: Streptococcus pyogenes SK(-)GAS viability under kanamycin – luminescence, BacTiterGlo, confirmation, counter-screen for streptokinase expression inhibitor project, dose response (AID 1900); type: functional, organism-based
[5] = microbe, parasite or virus in culture; type: functional; settings: Mycobacterium tuberculosis
[6] = tested on: Streptococcus; assay: GAS UMAA2166 growth inhibition – luminescence, BacTiterGlo, counter-screen for streptokinase expression inhibitor project, dose response (AID 1915); type: functional, organism-based;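 also: potency for reduction of bacterial viability or growth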
[7] = biological target: T2, Streptokinase A (Streptococcus pyogenes serotype M1, UniProt P10520); assay: viability-normalized secreted streptokinase activity reduction – plasminogen activation absorbance, OD405, dose response (AID 1914); type: functional, Streptococcus pyogenes M1 GAS;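 also: secreted streptokinase activity via plasminogen activation per viability signal from cell pellet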
T2 sequence (P10520 whole entry): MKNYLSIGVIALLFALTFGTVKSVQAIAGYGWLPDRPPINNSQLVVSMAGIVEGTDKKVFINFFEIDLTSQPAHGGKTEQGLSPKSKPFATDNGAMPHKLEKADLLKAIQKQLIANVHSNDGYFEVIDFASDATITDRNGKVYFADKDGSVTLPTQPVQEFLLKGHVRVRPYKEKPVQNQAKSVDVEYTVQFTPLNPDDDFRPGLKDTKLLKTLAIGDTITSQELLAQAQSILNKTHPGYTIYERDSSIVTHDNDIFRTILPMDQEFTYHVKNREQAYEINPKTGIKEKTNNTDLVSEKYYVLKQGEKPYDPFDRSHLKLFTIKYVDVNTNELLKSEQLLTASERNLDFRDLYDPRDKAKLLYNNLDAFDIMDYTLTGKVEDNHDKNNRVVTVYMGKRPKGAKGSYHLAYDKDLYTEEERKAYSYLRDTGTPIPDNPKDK

[8] = biological target: T3, Short transient receptor potential channel 4 (Mus musculus, UniProt Q9QUQ5); assay: block of DAMGO-driven TRPC4 calcium entry – cell-based, HEK293 TRPC4/mu-opioid, Fluo-4 calcium, dose response (AID 434942); type: functional;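 also: potency of inhibitors blocking the TRPC4 calcium response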
T3 sequence (Q9QUQ5 whole entry): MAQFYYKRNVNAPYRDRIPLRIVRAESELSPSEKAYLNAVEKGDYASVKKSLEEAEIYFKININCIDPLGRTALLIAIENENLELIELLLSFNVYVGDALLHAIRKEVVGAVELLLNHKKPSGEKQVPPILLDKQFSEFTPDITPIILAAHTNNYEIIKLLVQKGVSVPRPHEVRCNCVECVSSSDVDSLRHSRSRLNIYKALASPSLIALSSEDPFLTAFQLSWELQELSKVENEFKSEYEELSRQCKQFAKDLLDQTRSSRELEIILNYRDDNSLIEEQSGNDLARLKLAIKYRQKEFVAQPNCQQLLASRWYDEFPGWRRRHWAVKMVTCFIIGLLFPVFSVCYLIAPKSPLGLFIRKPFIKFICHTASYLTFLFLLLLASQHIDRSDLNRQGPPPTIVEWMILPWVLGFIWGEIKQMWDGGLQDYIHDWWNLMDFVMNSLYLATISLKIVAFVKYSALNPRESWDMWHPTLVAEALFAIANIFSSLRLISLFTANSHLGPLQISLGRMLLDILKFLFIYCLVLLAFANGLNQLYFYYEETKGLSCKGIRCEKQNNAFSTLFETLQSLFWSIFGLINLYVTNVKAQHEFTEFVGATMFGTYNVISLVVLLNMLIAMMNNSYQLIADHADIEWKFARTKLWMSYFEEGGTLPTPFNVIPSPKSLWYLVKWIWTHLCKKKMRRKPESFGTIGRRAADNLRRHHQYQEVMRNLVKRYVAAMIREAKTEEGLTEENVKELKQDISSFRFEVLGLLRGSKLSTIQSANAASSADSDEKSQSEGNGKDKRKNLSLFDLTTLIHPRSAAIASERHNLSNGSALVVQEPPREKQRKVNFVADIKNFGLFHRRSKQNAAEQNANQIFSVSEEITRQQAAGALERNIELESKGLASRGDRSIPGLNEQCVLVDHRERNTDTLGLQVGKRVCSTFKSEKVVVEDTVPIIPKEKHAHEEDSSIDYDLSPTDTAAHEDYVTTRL

[9] = viability of HCT116 lacking mutant beta-catenin – cell-based, human colon tumor, dose response (AID 1045); type: functional;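 also: HCT116 colon tumor cells with beta catenin knocked out; cells exposed to compound for 60 hours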
[10] = viability of PTEN-deleted HCT116 cells – cell-based, HCT116 PTEN knockout, dose response (AID 1047); type: functional;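 also: HCT116 colon tumor cells with PTEN knocked out; cells exposed to compound for 60 hours before readout; potency for loss of cell viability measured by luminescence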
[11] = Luminescence Cell-Based Dose Response HTS to Identify Inhibitors of 5'UTR Stem-Loop Driven Prion Protein mRNA Translation in H4 Neuroglioblastoma Cells. [Related pubchem assays: 1827 (Project Summary), 1813 (Primary HTS)]; type: functional
[12] = luciferase reporter signal suppression in cells – H4 neuroglioma cells, luminescence, dose response (AID 1990); type: functional, cell-based
[13] = tested on: BJ; assay: cells; type: functional, cell-based; settings: Homo sapiens
[14] = DRD fibroblast viability loss – cell-based, non-viral oncogenic, luminescence, dose response (AID 1934); type: functional; settings: Homo sapiens
[15] = alpha-synuclein stem-loop luciferase translation blockers – H4 neuroglioma cells, luminescence, confirmation (AID 1988); type: functional, cell-based
[16] = tested on: BJ; assay: BJ-TERT-LT-ST fibroblast viability loss – cell-based, RAS-independent, luminescence, dose response (AID 1935); type: functional; settings: Homo sapiens;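 also: BJ fibroblasts immortalized with TERT plus LT and ST oncogenes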
[17] = tested on: BJ; assay: BJ-TERT fibroblast viability loss – cell-based, RAS-independent, luminescence, dose response (AID 1933); type: functional; settings: Homo sapiens

Sequence of Nonstructural protein 1 (Q194T2 whole entry): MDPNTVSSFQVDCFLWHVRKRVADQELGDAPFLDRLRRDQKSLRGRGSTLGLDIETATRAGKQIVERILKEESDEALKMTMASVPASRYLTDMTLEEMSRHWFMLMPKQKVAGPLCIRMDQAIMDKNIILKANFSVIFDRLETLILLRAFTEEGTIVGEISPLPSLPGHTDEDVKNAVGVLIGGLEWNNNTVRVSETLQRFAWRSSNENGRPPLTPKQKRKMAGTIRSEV

COc1cc(C(=O)N/N=C(\C)c2ccccn2)cc(OC)c1OC
AC50 [1]: 1.94 µM (active)
IC50 [2]: 16.9 µM (active)

Brc1cccc(-c2nc3ccc(Br)cn3c2Cc2ccsc2)c1
IC50 [3]: > 100 µM (inactive)

Cc1cccc(/C=c2\s/c(=C\C(=O)C(C)(C)C)[nH]c2=O)c1
EC50 [4]: 10 µM (active)
CC50 [5]: 24.7 µM (active)
EC50 [6]: 17.2 µM (active)
EC50 [7]: > 150 µM (not active)

OCC1(Cc2ccccc2)CCCN(Cc2cnn(-c3ccccc3)c2)C1 (centres undefined)
EC50 [8]: 4.22 µM (active)

Cc1cc(=O)oc2c(C)c(OCC(=O)N3CCN(C(=O)C4COc5ccccc5O4)CC3)ccc12 (centres undefined)
CC50 [5]: > 40 µM (active)

COc1cc(C2C(C#N)=C(C)N=C3C2=C(O)c2ccccc23)cc(OC)c1OC (centres undefined)
EC50 [9]: 21.5 µM (active)
EC50 [10]: 16.1 µM (active)

N#Cc1cc2c(nc1SCC(=O)Nc1cc(Cl)ccc1Cl)C1CCN2CC1
EC50 [9]: 3.02 µM (active)
EC50 [10]: 6 µM (active)

C=C(C)Cn1c(SCC)nc2ccccc2c1=O
EC50 [8]: 4.73 µM (active)

COc1ccc(NS(=O)(=O)c2ccc(N/N=C/c3ccc(N4CCOCC4)cc3)c([N+](=O)[O-])c2)cc1
EC50 [9]: 5.68 µM (active)
EC50 [10]: 6.25 µM (active)

Cc1[nH]n(-c2ccccc2)c(=O)c1N=Nc1c(O)cc(S(=O)(=O)N(C)C)c2ccccc12
EC50 [4]: 2.21 µM (active)
EC50 [11]: 6.77 µM (active)
AC50 [1]: 0.949 µM (active)
EC50 [12]: 3.37 µM (active)
IC50 [2]: 19.8 µM (active)
EC50 [6]: 6.64 µM (active)
EC50 [13]: 10.3 µM (active)
EC50 [14]: 7.77 µM (active)
EC50 [15]: 2.12 µM (active)
EC50 [16]: 10.1 µM (active)
EC50 [17]: 7.94 µM (active)

O=[N+]([O-])c1cccc(/C=C/c2ccccn2)c1
IC50 [3]: 39.8 µM (active)

Nc1ccc(C=C2C=Cc3ccccc32)cc1
IC50 [3]: 21.3 µM (active)
